Measurements from patent US20220280526A1, “AGENT FOR THE TREATMENT OF PSORIASIS” (EBERHARD KARLS UNIVERSITAET TUEBINGEN MEDIZINISCHE FAKULTAET, priority 2019, published 2022).
Entries after “also recorded” stand apart in the source; their conditions may differ.

Key:
STAT3 = STAT3 phosphorylation in primary human keratinocytes (immunoblot); format: cell-based; settings: after stimulation with IL-36α
Excerpt: HaCaT cells were maintained in DMEM with 10% FCS and antibiotics. Human primary keratinocytes were freshly isolated from foreskin and maintained in CnT-07S medium with gentamycin (CELLnTEC). Recombinant human IL-36α (aa 6-158) and mouse IL-36α (aa 6-160) were purchased from R&D Systems. Recombinant IL-17A (11340174), TNFα (11343013) and IL-1β (11340013) were ordered from Immunotools. Flagellin (vac-fla) and poly I:C (vac-pic) were purchased from Invivogen. In cell culture experiments, the cytokines were used at the following concentrations, as described previously: IL-36α (100 ng/mL), IL-17A (200 ng/mL), TNFα (10 ng/mL) and IL-1β (100 ng/mL). Flagellin was applied at 10 ng/mL and poly(I:C) was added at a final concentration of 100 ng/mL. […] When indicated, cells were starved for 2 h prior to cytokine treatment, by removing cell culture supplements from the growth medium.
Western blot analysis was performed as described before. […]

EZH2-STAT3 interaction = assay: Co-immunoprecipitation of EZH2 and STAT3 in HaCaT cells; format: cell-based; settings: 30 min IL-36α
Procedure: Cells were lysed by mechanical disruption using standard lysis buffer (50 mM Tris-HCl pH 7.5, 150 mM NaCl, 1% NP-40, lx Protease inhibitor cocktail, Roche). Subsequently, lysates were sonicated for 5 minutes at high power (Bioruptor, Diagenode), followed by pre-clearing of the lysates with protein A/G PLUS agarose beads (Santa Cruz, sc-2003) for 1 h at 4° C. Precleared lysates were incubated either with antibodies specific for CDK4 (Cell Signaling, 12790), CDK6 (Sigma, HPA002637), EZH2 (Cell Signaling, 5246), STAT3 (MA1-13042, Thermo Fisher) or β-Gal antibody (sc-19119, Santa Cruz) as an IgG control, overnight at 4° C. For endogenous IPs immune complexes were precipitated with protein A/G PLUS agarose beads and eluted by 6×SDS-PAGE sample buffer.

STAT3 lysine methylation = assay: Detection of methylated STAT3 by immunoprecipitation in HEK293T cells; format: cell-based; settings: STAT3- and EZH2-overexpressing HEK293T cells, 1 h treatment
Procedure: HEK293T cells were transfected using HBS buffer and CaCl2. HaCaT cells were transfected with Lipofectamine 3000, according to the manufacturer's instructions (Thermo Fisher). 5 μg expression constructs were incubated with 3*10^5 cells for 4 h. 36-48 h post transfection, cells were harvested and analysed.
Western blot analysis was performed as described before. The following antibodies were used and purchased from Cell Signaling: anti-IκBζ (9244), anti-phospho-STAT3 at Tyr705 (9145), anti-phospho-STAT3 at Ser727 (9134), anti-STAT3 (12640), anti-p65 (8242), anti-EZH2 (5246), anti-pRB (phospho-RB at Ser807/811; 8516), anti-FoxM1 (5436), anti-H3 (4499), anti-CDK4 (12790), anti-CDK6 (13331), anti-CDK9 (2316), anti-cyclin D1 (2978), anti-cyclin D2 (3741), anti-cyclin D3 (2936), anti-cJUN (9165), anti-H3K27me3 (9733), anti-GAPDH (2118), anti-H3 (9715) and anti-β-actin (3700). Anti-β-Gal (sc377257) and anti-GFP (sc9996) were obtained from Santa Cruz Biotechnology. Anti-pEZH2 at T345 (61242) anti-pEZH2 at T487 (12820) were purchased from Active Motif and anti-pan-methyl-lysine antibody was purchased from Enzo (ADI-KAP-TF121-E). For detection of mouse IκBζ, a self-made antibody raised against peptides […] (SEQ ID NO:3) and […] (SEQ ID NO:4) was applied. […]

IκBζ (NFKBIZ) expression = assay: IκBζ expression in cytokine-stimulated primary human keratinocytes (immunoblot, qPCR); format: cell-based; settings: 1 h cytokine, abemaciclib 16 μM, palbociclib 50 μM
Procedure: Gene expression analyses were performed as described. Relative gene expression was analyzed using self-designed primers ordered at Metabion (not shown). Relative mRNA levels were calculated by normalization to the human reference gene RPL37A or the mouse reference gene Actin using the 2-ΔΔCt method.

[1] = test system: IMQ-induced psoriasis-like skin inflammation; assay: Imiquimod (IMQ)-mediated psoriasis mouse model, topical treatment of ears; format: in vivo, C57BL/6 mice
Procedure: Experiments were conducted in accordance with the German law guidelines of animal care. […] At day 7, mice were sacrificed and analysed. For IL-36α-mediated psoriasis induction, ears of male C57BL/6 mice (8-12 weeks old) were treated by intradermal injections using 1 μg murine IL-36α (aa 8-160, R&D) or PBS control for 5 consecutive days. […] Inhibitors were topically applicated 6 h before intradermal injections of IL-36α or PBS were applied. Mice were sacrificed and analysed at day 6.
Sample preparation was performed as described. The following anti-mouse antibodies from BioLegend were used: anti-CD45 FITC (103107), anti-CD11 b PacificBlue (101223), anti-Ly6G PE (127607), anti-F4/80 APC (123115), anti-CD11c Pacific Blue (117322), anti-MHC-II APC (107613), anti-CD172α PE (144011) and anti-Silec-H PE (129605). Anti-PDCA-1 APC (17-2092-80) and anti-αβTCR PE (HM3628) were purchased from Invitrogen, and anti-γδ-TCR APC (17-5711-82) from Sigma. Data was acquired on a LSRII flow cytometer (Becton Dickson).
Ear sections from mice were fixed in 10% formalin (Carl Roth) and subsequently embedded in paraffin. 5-μm sections were prepared and incubated with the following antibodies from Cell Signaling: pSTAT3 (9145), pRB (8516) and H3K27me3 (9733). For staining of human skin samples, EZH2 antibody (Cell Signaling, 5246) was used. Antigen retrieval was performed in 1 mM EDTA pH 8.0 for pSTAT3, and 10 mM citrate buffer pH 6.0+0.5% Triton X-100 for EZH2, H3K27me3 and pRB. After incubation with peroxidase-coupled secondary antibodies, sections were stained with DAB substrate.

IκBζ expression = IκBζ expression in synchronized HaCaT cells stimulated with IL-36α; format: cell-based; settings: 1 h IL-36α
Procedure: Synchronization of the cells with a double thymidine block was performed as described before. After the second thymidine block, cells were released in normal medium. At 0, 4, 10 and 14 h after release, cells were stimulated with IL-36α and/or abemaciclib for 1 h. Propidium iodide staining was performed by flow cytometry (LSRII, Becton Dickson) to detect the cell cycle phase at the time point of cell harvest.
Western blot analysis was performed as described before. The following antibodies were used and purchased from Cell Signaling: anti-IκBζ (9244), anti-phospho-STAT3 at Tyr705 (9145), anti-phospho-STAT3 at Ser727 (9134), anti-STAT3 (12640), anti-p65 (8242), anti-EZH2 (5246), anti-pRB (phospho-RB at Ser807/811; 8516), anti-FoxM1 (5436), anti-H3 (4499), anti-CDK4 (12790), anti-CDK6 (13331), anti-CDK9 (2316), anti-cyclin D1 (2978), anti-cyclin D2 (3741), anti-cyclin D3 (2936), anti-cJUN (9165), anti-H3K27me3 (9733), anti-GAPDH (2118), anti-H3 (9715) and anti-β-actin (3700). Anti-β-Gal (sc377257) and anti-GFP (sc9996) were obtained from Santa Cruz Biotechnology. Anti-pEZH2 at T345 (61242) anti-pEZH2 at T487 (12820) were purchased from Active Motif and anti-pan-methyl-lysine antibody was purchased from Enzo (ADI-KAP-TF121-E). For detection of mouse IκBζ, a self-made antibody raised against peptides […] (SEQ ID NO:3) and […] (SEQ ID NO:4) was applied.

[2] = flow cytometry of ears at day 7

Abemaciclib mesylate
phosphorylation of STAT3 at threonine 727 (T727) (STAT3): remained unaffected | phosphorylation of STAT3 at tyrosine 705 (Y705) (STAT3): completely absent | interaction of EZH2 with STAT3 (EZH2-STAT3 interaction): abrogate | lysine methylation of STAT3 (STAT3 lysine methylation): abrogated | IL-36α- or IL-17A/TNFα-mediated induction of IκBζ expression (IκBζ (NFKBIZ) expression): completely blocked; also recorded: abolished | pRB expression in the epidermis (CDK4/6 inhibition) ([1]; ear skin sections of treated mice): loss of pRB | immune cell infiltration (neutrophils, macrophages, T cells) [1, 2]: significantly suppressed | number of infiltrating plasmacytoid (pDC) and myeloid dendritic cells (mDC) [1, 2]: significantly suppressed | IκBζ expression, phosphorylation of EZH2 at T345 and of STAT3 at Y705 in the skin ([1]; immunoblot of skin tissue at day 7): completely abrogated | expression of IκBζ target genes (Cxcl2, Cxcl5) and cytokines (Il17a, Il23a) in skin ([1]; qPCR of skin samples at day 7): significantly downregulated | psoriasis-like skin inflammation (ear thickening, keratinocyte hyperproliferation, immune cell infiltration) ([1]; topical daily for 6 days with IMQ, abemaciclib 0.02 mg, CPI-169 0.05 mg per ear/day, analysed day 7): completely suppressed | skin penetration of topically applied inhibitor ([1]; topical on mouse ear skin): effectively penetrated | IL-36α-triggered IκBζ induction in all phases of the cell cycle (IκBζ expression): completely suppressed
